From patent publication EP4813980A1, “EP300/CBP REGULATOR, AND PREPARATION METHOD THEREFOR AND USE THEREOF” (Miracure Biotechnology Limited, priority 2023, dated 2025) come the findings set out here.

In the test the test system is 22RV1 cells. As to the kind of experiment: Cell growth inhibition, CellTiter-Glo, 72 h. The settings on record: 72 h culture, mean of N=2. The format is cell-based. The method, then: 22RV1, vCap, MM1S and OPM-2 cells were cultured in RPMI-1640 medium (10% fetal bovine serum and 100 units of penicillin/streptomycin dual-antibody per mL were added to RPMI-1640) in a cell incubator at 37°C with 5% CO2, respectively. Cells in logarithmic growth phase were seeded into 96-well cell culture plates at 5×10^3 cells/100 µL/well and cultured overnight. Active compounds dissolved in DMSO at different concentrations were added with a final concentration of 0.5% DMSO. 1% Tween 20 was used as positive control and 0.5% DMSO was used as negative control. After 72 h of culture, an equal volume of CellTiter-Glo was added to each well, mixed by shaking for 2 min, and left standing at room temperature for 10 min. […] signal values were read with a microplate reader. Data were analyzed and graphs were generated using Prism 7.0. The values shown are mean ± SEM (N=2). […] The formula for inhibition rate is as follows: % Inhibition = (Icompound−IZPE)/(IHPE−IZPE) × 100 [formula]
The X-axis is compound concentration (nM), and the Y-axis is % Inhibition.
Background: ATP-based viability assays read luminescence as a measure of living cells.

The term IC50 denotes the midpoint of a concentration-inhibition curve. Compound `CC(=O)N1Cc2cc(C3CCN(CCN4CCC(CNc5cccc6c5CN(C5CCC(=O)NC5=O)C6=O)CC4)CC3)cc(N3CCCc4cc(-c5cnn(C)c5)c(C(F)F)cc43)c2C1` (centres unmarked) [Compound 2061] displayed an IC50 (Homo sapiens) of 3.48 nM.

As for `C=CC(=O)NC1CCC(n2c([C@@H]3CCCC(=O)N3c3ccc(F)c(F)c3)nc3cc(-c4c(C)noc4C)ccc32)CC1` (some centres unmarked) [Compound 1371], the IC50 stood at 2090 nM.

Consider `CC(=O)N1Cc2cc(C3CCN(CC4CCN(c5cccc6c5CN(C5CCC(=O)NC5=O)C6=O)CC4)CC3)cc(N3CCCc4cc(-c5cnn(C)c5)c(C(F)F)cc43)c2C1` (centres unmarked) [Compound 2047], for which the half-maximal inhibitory concentration (IC50) (Homo sapiens) is > 10000 nM.

`CC(=O)N1Cc2cc(C3CCN(C(=O)CN4Cc5cc6c(cc5C4)C(=O)N(C4CCC(=O)NC4=O)C6=O)CC3)cc(N3CCCc4cc(-c5cnn(C)c5)c(C(F)F)cc43)c2C1` (centres unmarked) [Compound 2050] gave a half-maximal inhibitory concentration (IC50) (Homo sapiens) of 5.25 nM.

Consider `CC(=O)N1Cc2cc(C3CCC(N(C)C4CCN(c5ccc6c(c5)CN(C5CCC(=O)NC5=O)C6=O)CC4)CC3)cc(N3CCCc4cc(-c5cnn(C)c5)c(C(F)F)cc43)c2C1` (centres unmarked) [Compound 2079, 3-(5-((4-((2-acetyl-7-(7-(difluoromethyl)-6-(1-methyl-1H-pyrazol-4-yl)-3,4-dihydroquinolin-1(2H)-yl)isoindolin-5-yl)cyclohexyl)(methyl)amino)piperidin-1-yl)-1-oxoisoindolin-2-yl)piperidine-2,6-dione], for which half-maximal inhibition (Homo sapiens) (IC50) was put at 3.76 nM.

Turning to `COC(=O)N1CCc2cc(C3CCN(C(=O)CCCCCCCNc4ccc5c(c4)C(=O)N(C4CCC(=O)NC4=O)C5=O)CC3)cc(N3CCCc4cc(-c5cnn(C)c5)c(C(F)F)cc43)c2C1` (centres unmarked) [Compound 2026, methyl 8-[7-(difluoromethyl)-6-(1-methylpyrazol-4-yl)-3,4-dihydro-2H-quinolin-1-yl]-6-[1-[8-[[2-(2,6-dioxo-3-piperidinyl)-1,3-dioxoisoindolin-5-yl]amino]octanoyl]-4-piperidinyl]-3,4-dihydro-1H-isoquinoline-2-carboxylate], for the setting “Homo sapiens”, inhibition was half-maximal at 22.4 nM (IC50).

Take `CC#CC(=O)N1CCC(n2nc(N3CCCc4cc(-c5cnn(C)c5)c(C(F)F)cc43)c3c2CCN(C(=O)NC)C3)CC1` [Compound 1376]: the half-inhibitory concentration (IC50) (Homo sapiens) was 2650 nM.

On to `CC(=O)N1Cc2cc(C3CCN(CCN4Cc5cc6c(cc5C4)C(=O)N(C4CCC(=O)NC4=O)C6=O)CC3)cc(N3CCCc4cc(-c5cnn(C)c5)c(C(F)F)cc43)c2C1` (centres unmarked) [Compound 2059], for which it took 9.42 nM to reach half-maximal inhibition (Homo sapiens) (IC50).

As to `CC(=O)N1Cc2cc(C3CCN(CC4CCN(CCOc5ccc(N6CCC(=O)NC6=O)cc5)CC4)CC3)cc(N3CCCc4cc(-c5cnn(C)c5)c(C(F)F)cc43)c2C1` [Compound 2072], the concentration for half-maximal inhibition (IC50) (Homo sapiens) came to 2020 nM.

`CC(=O)N1Cc2cc(C3CCN(C(=O)Cn4cc(COc5cccc6c5CN(C5CCC(=O)NC5=O)C6=O)nn4)CC3)cc(N3CCCc4cc(-c5cnn(C)c5)c(C(F)F)cc43)c2C1` (centres unmarked) [Compound 2046] had a half-inhibitory concentration (IC50) (Homo sapiens) of 14 nM. This IC50 lies about 140-fold lower than the previous one.

In turn, `C=CS(=O)(=O)N[C@H]1CC[C@H](n2c([C@@H]3CCCC(=O)N3c3ccc(F)c(F)c3)nc3cc(-c4c(C)noc4C)ccc32)CC1` [Compound 1370] came in with a half-maximal inhibitory concentration (IC50) (Homo sapiens) of 1610 nM.

As to `CC(=O)N1Cc2cc(C3CCN(CC4CCN(CCNc5cccc6c5CN(C5CCC(=O)NC5=O)C6=O)CC4)CC3)cc(N3CCCc4cc(-c5cnn(C)c5)c(C(F)F)cc43)c2C1` (centres unmarked) [Compound 2060], under “Homo sapiens”, the IC50 stood at 6.8 nM.

Regarding `CNC(=O)N1Cc2cc(C3CCN(C(=O)CCOCCOCCOCCOCCNc4ccc5c(c4)C(=O)N(C4CCC(=O)NC4=O)C5=O)CC3)cc(N3CCCc4cc(-c5cnn(C)c5)c(C(F)F)cc43)c2C1` (centres unmarked) [Compound 2023], inhibition (Homo sapiens) was half-maximal at 434 nM (IC50).

For the compound `C=CC(=O)N1CCC(c2cc3c(c(N4CCCc5cc(-c6cnn(C)c6)c(C(F)F)cc54)c2)CN(C(=O)NC)CC3)CC1` [Compound 1346, 6-(1-acryloylpiperidin-4-yl)-8-(7-(difluoromethyl)-6-(1-methyl-1H-pyrazol-4-yl)-3,4-dihydroquinolin-1(2H)-yl)-N-methyl-3,4-dihydroisoquinoline-2(1H)-carboxamide], where the note is “Homo sapiens”, the IC50 came out at 81800 nM.
